Consider 17 compounds from US12157730B2, “Heteroaryl derivative, method for producing same, and pharmaceutical composition comprising same as effective component” (VORONOI INC., priority 2019, dated 2024).

In this assay the target is T1, Ba/F3 cell EGFR Exon20 ins NPH (Homo sapiens, UniProt P00533, INS773NPH).
T1 construct: expressed in transfected cells; host or cells: Ba/F3
The assay can be described thus: Ba/F3 cell proliferation suppression, EGFR Exon20 ins NPH. In kind it is cell-based. To be noted: GI50 class; Ba/F3 cell line with NPH inserted at Exon20 of EGFR; 72 hours. The method, boiled down: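 Seed 3000–5000 cells/well; after 24 h add compound (12 conc., 0.3 nM–50 um final); incubate 72 h; add CellTiter-Glo, 10 min room temperature; read luminescence; GI50 from % growth vs control, triplicate.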
On to `C=CC(=O)Nc1cc(Nc2cc(N3OCC[C@@H]3c3cccc(Cl)c3F)ncn2)c(OC)cc1N1CCC(N2CCCN(C3CC3)CC2)CC1` [compound 358, N-(5-((6-((R)-3-(3-chloro-2-fluorophenyl)isoxazolidine-2-yl)pyrimidine-4-yl)amino)-2-(4-(4-cyclopropyl-1,4-diazepane-1-yl)piperidine-1-yl)-4-methoxyphenyl) acrylamide], for which the “Ba/F3 (NPH) Activity” value is reported as “A (GI50 < 50 nM)”. The result for `C=CC(=O)Nc1cc(Nc2cc(N3OCC[C@@H]3c3cccc(C#N)c3)ncn2)c(OC)cc1N1C[C@@H]2CCN(C)[C@@H]2C1` [compound 332, N-(5-((6-((R)-3-(3-cyanophenyl)isoxazolidine-2-yl)pyrimidine-4-yl)amino)-4-methoxy-2-((3aS,6aS)-1-methylhexahydropyrrolo [3,4-b]pyrrole-5(1H)-yl)phenyl)acrylamide] reads “A (GI50 < 50 nM)”. Then `C=CC(=O)Nc1cc(Nc2cc(N3OCC[C@@H]3c3ccc(Cl)c(F)c3)ncn2)c(OC)cc1N1CCC(N2CCC(N(C)C)CC2)CC1` [compound 803, N-(5-((6-((R)-3-(4-chloro-3-fluorophenyl)isoxazolidine-2-yl)pyrimidine-4-yl)amino)-2-(4-(dimethylamino)-[1,4'-bipiperidine]-1'-yl)-4-methoxyphenyl) acrylamide], with “A (GI50 < 50 nM)”. Then `C=CC(=O)Nc1cc(Nc2cc(N3OCC[C@@H]3c3ccc(Cl)c(Cl)c3)ncn2)c(OC)cc1N1C[C@H]2C[C@@H]1CN2C` [compound 674, N-(5-((6-((R)-3-(3,4-dichlorophenyl)isoxazolidine-2-yl)pyrimidine-4-yl)amino)-4-methoxy-2-((1R,4R)-5-methyl-2,5-diazabicyclo[2.2.1]heptane-2-yl)phenyl) acrylamide], with “A (GI50 < 50 nM)”; and `C=CC(=O)Nc1cc(Nc2cc(N3OCC[C@@H]3c3cc(F)cc(F)c3)ncn2)c(OC)cc1N1CCC(N2CCN(C3CC3)C[C@H]2C)CC1` [Example 112, N-(2-(4-((R)-4-cyclopropyl-2-methylpiperazine-1-yl)piperidine-1-yl)-5-((6-((R)-3-(3,5-difluorophenyl)isoxazolidine-2-yl)pyrimidine-4-yl)amino)-4-methoxyphenyl) acrylamide], with “A (GI50 < 50 nM)”. As to `C=CC(=O)Nc1cc(Nc2cc(N3OCC[C@@H]3c3cc(F)ccc3F)ncn2)c(OC)cc1N1CCC(N2CC[C@@H](N(C)C)C2)CC1` [compound 304, N-(5-((6-((R)-3-(2,5-difluorophenyl)isoxazolidine-2-yl)pyrimidine-4-yl)amino)-2-(4-((R)-3-(dimethylamino)pyrolidine-1-yl)piperidine-1-yl)-4-methoxyphenyl) acrylamide], the “Ba/F3 (NPH) Activity” value is “A (GI50 < 50 nM)”.

As for `C=CC(=O)Nc1cc(Nc2cc(N3OCC[C@@H]3c3ccc(Cl)c(F)c3)ncn2)c(OC)cc1N1CCC(N2C[C@@H]3C[C@H]2CO3)CC1` [compound 802, N-(2-(4-((1S,4S)-2-oxa-5-azabicyclo [2.2.1]heptane-5-yl)piperidine-1-yl)-5-((6-((R)-3-(4-chloro-3-fluorophenyl)isoxazolidine-2-yl)pyrimidine-4-yl)amino)-4-methoxyphenyl) acrylamide], the “Ba/F3 (NPH) Activity” value was “A (GI50 < 50 nM)”. Then `C=CC(=O)Nc1cc(Nc2cc(N3OCC[C@@H]3c3ccc(F)c(Cl)c3)ncn2)c(OC)cc1N1CCN(C(C)=O)CC1` [compound 907, N-(2-(4-acetylpiperazine-1-yl)-5-((6-((R)-3-(3-chloro-4-fluorophenyl)isoxazolidine-2-yl)pyrimidine-4-yl)amino)-4-methoxyphenyl) acrylamide], with “A (GI50 < 50 nM)”; and `C=CC(=O)Nc1cc(Nc2cc(N3OCC[C@@H]3Cc3ccccc3)ncn2)c(OC)cc1N1CCN(CCN(C)C)CC1` [compound 961, N-(5-((6-((S)-3-benzylisoxazolidine-2-yl)pyrimidine-4-yl)amino)-2-(4-(2-(dimethylamino)ethyl)piperazine-1-yl)-4-methoxyphenyl) acrylamide], with “A (GI50 < 50 nM)”; and `C=CC(=O)Nc1cc(Nc2cc(N3OCC[C@@H]3c3ccccc3)ncn2)c(OC)cc1N1CCC(N2CCN(C3CCOCC3)CC2)CC1` [Example 102, N-(4-methoxy-5-((6-((R)-3-phenylisoxazolidine-2-yl)pyrimidine-4-yl)amino)-2-(4-(4-(tetrahydro-2H-pyran-4-yl)piperazine-yl)piperidine-yl)phenyl)acrylamide], with “A (GI50 < 50 nM)”. The result for `C=CC(=O)Nc1cc(Nc2cc(N3OCC[C@@H]3c3cccc(Cl)c3C)ncn2)c(OC)cc1N1CCC(N2CCO[C@@H](C)C2)CC1` [compound 529, N-(5-((6-((R)-3-(3-chloro-2-methylphenyl)isoxazolidine-2-yl)pyrimidine-4-yl)amino)-4-methoxy-2-(4-((S)-2-methylmorpholino)piperidine-1-yl)phenyl) acrylamide] reads “A (GI50 < 50 nM)”; that for `C=CC(=O)Nc1cc(Nc2cc(N3OCC[C@@H]3c3ccc(Cl)c(F)c3)ncn2)c(OC)cc1N1CC[C@H](N2CCOCC2)C1` [compound 365, N-(5-((6-((R)-3-(4-chloro-3-fluorophenyl)isoxazolidine-2-yl)pyrimidine-4-yl)amino)-4-methoxy-2-((S)-3-morpholinopyrolidine-1-yl)phenyl) acrylamide], “B (50 nM ≤ GI50 < 500 nM)”; that for `C=CC(=O)Nc1cc(Nc2cc(N3OCC[C@@H]3c3cccc(F)c3)ncn2)c(OC)cc1N1CCOCC1` [compound 840, N-(5-((6-((R)-3-(3-fluorophenyl)isoxazolidine-2-yl)pyrimidine-4-yl)amino)-4-methoxy-2-morpholinophenyl) acrylamide], “A (GI50 < 50 nM)”.

For `C=CC(=O)Nc1cc(Nc2cc(N3OCC[C@@H]3c3ccc(F)cc3)ncn2)c(OC)cc1N1CCC(N2C[C@@H]3C[C@H]2CO3)CC1` [compound 812, N-(2-(4-((1S,4S)-2-oxa-5-azabicyclo [2.2.1]heptane-5-yl)piperidine-1-yl)-5-((6-((R)-3-(4-fluorophenyl)isoxazolidine-2-yl)pyrimidine-4-yl)amino)-4-methoxyphenyl) acrylamide], the “Ba/F3 (NPH) Activity” value is on record as “A (GI50 < 50 nM)”. Then `C=CC(=O)Nc1cc(Nc2cc(N3OCC[C@@H]3c3cccc(Cl)c3)ncn2)c(OC)cc1N1CCN(CC)CC1` [compound 411, N-(5-((6-((R)-3-(3-chlorophenyl)isoxazolidine-2-yl)pyrimidine-4-yl)amino)-2-(4-ethylpiperazine-1-yl)-4-methoxyphenyl) acrylamide], with “A (GI50 < 50 nM)”; and `C=CC(=O)Nc1cc(Nc2cc(N3OCC[C@@H]3c3c(F)ccc(F)c3F)ncn2)c(OC)cc1N1CC[C@@H](N(C)C)C1` [compound 630, N-(2-((R)-3-(dimethylamino)pyrolidine-1-yl)-4-methoxy-5-((6-((R)-3-(2,3,6-trifluorophenyl)isoxazolidine-2-yl)pyrimidine-4-yl)amino)phenyl)acrylamide], with “B (50 nM ≤ GI50 < 500 nM)”; and `C=CC(=O)Nc1cc(Nc2cc(N3OCC[C@@H]3c3cccc(F)c3F)ncn2)c(OC)cc1N1CC[C@@H](N(C)C)C1` [compound 927, N-(5-((6-((R)-3-(2,3-difluorophenyl)isoxazolidine-2-yl)pyrimidine-4-yl)amino)-2-((R)-3-(dimethylamino)pyrolidine-1-yl)-4-methoxyphenyl) acrylamide], with “A (GI50 < 50 nM)”.
